Measured values: US20250339531A1, “DUX4 POLYPEPTIDES AND NUCLEIC ACIDS FOR TREATING INFLAMMATORY AND AUTOIMMUNE CONDITIONS” (Fred Hutchinson Cancer Center, priority 2021, published 2025)

Test system: proteins that co-immunoprecipitated with DUX4-CTD constructs expressed in MB135 myoblasts
Assay: LC-MS of proteins co-immunoprecipitated with DUX4-CTD (Table 1) and western validation
Type: binding, human
Parameters: key to 4. mL1dL2 + Dox + IFNG / 4. + IFNG mix / 4. longCTD + Dox + IFNG / 3. + IFNg + Dox longCTD / 3. + Dox longCTD / 3. + IFNG longCTD: peptide-spectrum matches (PSMs) per protein
Settings: for 4. longCTD + Dox + IFNG: LC-MS counts of the listed protein co-immunoprecipitated with DUX4-CTD bait longCTD; for 3. + Dox longCTD / 3. + IFNg + Dox longCTD / 3. + IFNG longCTD: bait longCTD; for 3. + Dox longCTD: experiment 3, Dox only; for 3. + IFNg + Dox longCTD: experiment 3, IFNg + Dox; for SUM of PSMS: sum over all samples; for 3. + IFNG longCTD: experiment 3, IFNG only, no doxycycline (bait at background level)
Excerpt: As an unbiased method to identify proteins that interact with the C-terminal region of DUX4, liquid chromatography mass spectroscopy (LC-MS) was used to identify proteins that co-immunoprecipitated with DUX4-CTD constructs expressed in MB135 myoblasts. In the first experiment, MB135iDUX4-CTD cells were used, either untreated, treated with doxycycline alone, or with both doxycycline and IFNG. In the second experiment, MB135iDUX4-CTD and MB135iDUX4mL1dL2 cells were used, both treated with doxycycline and IFNG, compared to these two cell lines untreated and combined as a control. Proteins with a minimum of 2 peptide spectrum matches (PSMs) in at least one sample that were identified in both experiments were assigned to one of ten categories (see Methods) to separate candidate interactors from other categories that might be co-purified because of obligate interactions (e.g., proteasome or ribosome) or might be less likely to be physiologically relevant (e.g., cytoskeletal proteins). Candidate interactors were then ranked based on the total PSMs for that protein across all samples.
Centrifugation at 2500 rcf at 4° C. for 5 min pelleted the nuclei, supernatant was discarded, and nuclei resuspended in 1 mL IP buffer pH 7.4 (25 mM Tris-HCl pH 7.5, 175 mM NaCl, 1 mM EDTA, 0.2% NP-40, 5% glycerol) and incubated for 1 hour at 4° C. with rotation then spun at 21000 rcf for 10 minutes at 4° C. to pellet insoluble debris. Protein concentration was determined using the Pierce BCA Protein Assay Kit (ThermoFisher, 23225). An equivalent amount of protein per sample was pre-cleared with Dynabeads Protein G (Invitrogen) bound to mouse IgG (Abcam #131368) for 1 hour at 4° C. with rotation. FLAG-tagged constructs were then immunoprecipitated with Dynabeads Protein G beads coupled to mouse anti-FLAG M2 mAb (Sigma F3165) for 3 hours at 4° C. with rotation. Beads were washed 3× with 1 mL IP buffer and eluted by adding 2× NuPage LDS Sample Buffer (Thermo Fisher, diluted from 4× with PBS) to the beads and heating for 10 minutes at 70° C.
For LC-MS, anti-FLAG immunoprecipitation was performed with beads cross-linked to the anti-FLAG antibody and the proteins competitively eluted with FLAG peptide. Eluted protein samples were electrophoresed into a NuPage 4-12% Bis-Tris gel, excised, and processed by the Fred Hutchinson Cancer Research Center Proteomics Core. Samples were reduced, alkylated, digested with trypsin, desalted, and run on the Orbitrap Eclipse Tribid Mass Spectrometer (Thermo Fisher). Proteomics data were analyzed using Proteome Discoverer 2.4 against a Uniprot human database that included common contaminants using Sequest HT and Percolator for scoring. […] Proteins that were identified in at least one sample from both independent experiments with at least 2 PSMs in one sample were assigned to one of ten categories: 1, candidates; 2, cytoskeletal associated; 3, cytoskeletal; 4, ribosome/translation associated; 5, proteasome associated; 6, membrane or extracellular; ER, golgi, or vesicle associated; 8, lipid metabolism; 9, chaperones; 10, nuclear import or nuclear membrane associated. The proteins in category 1 were further investigated for interactions with DUX4.

[1] = LC-MS value per protein co-immunoprecipitated with DUX4-CTD construct mL1dL2 in MB135 myoblasts, + Dox + IFNG, kind of count not given
[2] = LC-MS value per protein co-immunoprecipitated from MB135 myoblasts, + IFNG mix sample (no Dox), kind of count not given
[3] = LC-MS counts of the listed protein co-immunoprecipitated with DUX4-CTD bait mL1dL2, experiment 4, Dox + IFNG
[4] = LC-MS counts of the listed protein in anti-FLAG co-IP, experiment 4, IFNG, no doxycycline, mix, MB135 myoblasts

Substance | 4. longCTD + Dox + IFNG (experiment 4, Dox + IFNG) | 3. + Dox longCTD | 3. + IFNg + Dox longCTD | SUM of PSMS | 4. mL1dL2 + Dox + IFNG [1] | other results
Q15149 | 7 | 5 | 21 | 52 |  | 
USP9X |  |  |  |  | 7 | 
Q09666 | 1 | 8 | 4 | 14 |  | 
MYH9 |  |  |  |  | 1 | 4. + IFNG mix [2]: 10
PPP2R1A |  |  |  |  | 5 | 
Q93008 | 3 |  | 5 | 15 |  | 
P08238 | 10 | 2 | 14 | 32 |  | 4. mL1dL2 + Dox + IFNG [3]: 6
PRKDC |  |  |  |  | 5 | 4. + IFNG mix [2]: 11
P35579 | 4 | 122 | 242 | 387 |  | 3. + IFNG longCTD: 8
P48681 | 2 | 4 | 4 | 18 |  | 3. + IFNG longCTD: 1
P78527 | 2 | 3 | 18 | 39 |  | 
P61978 | 6 | 2 | 8 | 31 |  | 
P63010 |  | 8 | 26 | 35 |  | 
P52294 | 2 | 4 | 8 | 15 |  | 4. mL1dL2 + Dox + IFNG [3]: 1
P4HB |  |  |  |  | 20 | 4. + IFNG mix [2]: 9
P30153 | 2 | 5 | 14 | 28 |  | 3. + IFNG longCTD: 2
P11021 | 44 | 22 | 62 | 209 |  | 4. mL1dL2 + Dox + IFNG [3]: 49; 4. + IFNG mix [4]: 31; 3. + IFNG longCTD: 1
Q14315 | 12 | 2 | 7 | 24 |  | 
P78371 | 4 |  | 1 | 7 |  | 4. mL1dL2 + Dox + IFNG [3]: 2
VIM |  |  |  |  | 43 | 4. + IFNG mix [2]: 66
NPM1 |  |  |  |  | 4 | 4. + IFNG mix [2]: 2
P08670 | 55 | 42 | 45 | 290 |  | 3. + IFNG longCTD: 39
EEF1G |  |  |  |  | 1 | 
P10644 | 3 |  | 4 | 11 |  | 4. mL1dL2 + Dox + IFNG [3]: 4
Q13283 | 2 | 1 | 2 | 7 |  | 

Substance | 4. longCTD + Dox + IFNG (experiment 4, Dox + IFNG) | 3. + Dox longCTD | 3. + IFNg + Dox longCTD | SUM of PSMS | 4. mL1dL2 + Dox + IFNG [1] | other results
TUBA1B |  |  |  |  | 24 | 4. + IFNG mix [2]: 9
P49368 | 2 |  | 1 | 7 |  | 4. mL1dL2 + Dox + IFNG [3]: 4
P08123 |  | 1 |  | 4 |  | 3. + IFNG longCTD: 1
P17661 | 12 | 9 | 15 | 84 |  | 3. + IFNG longCTD: 14
P11142 | 105 | 27 | 54 | 299 |  | 4. mL1dL2 + Dox + IFNG [3]: 90; 4. + IFNG mix [4]: 21; 3. + IFNG longCTD: 2
DES |  |  |  |  | 10 | 4. + IFNG mix [2]: 24
PSMD2 |  |  |  |  | 3 | 4. + IFNG mix [2]: 1
P07237 | 14 | 3 | 5 | 51 |  | 
P06748 |  | 2 | 8 | 16 |  | 
HNRNPK |  |  |  |  | 12 | 4. + IFNG mix [2]: 3
Q9ULV4 | 7 | 4 | 13 | 24 |  | 
P21333 | 10 | 1 | 12 | 30 |  | 
STAT3 |  |  |  |  | 1 | 
PSMA6 |  |  |  |  | 4 | 
P26641 | 1 | 3 | 6 | 11 |  | 
PTBP1 |  |  |  |  | 1 | 
P50990 | 3 |  | 2 | 6 |  | 4. mL1dL2 + Dox + IFNG [3]: 1
Q13200 | 4 |  | 3 | 11 |  | 
P47929 | 6 | 1 | 1 | 8 |  | 
AHNAK |  |  |  |  |  | 4. + IFNG mix [2]: 1
G3BP1 |  |  |  |  | 1 | 4. + IFNG mix [2]: 1
O60684 | 1 | 4 | 4 | 15 |  | 4. mL1dL2 + Dox + IFNG [3]: 6
HNRNPU |  |  |  |  | 1 | 
Q15208 | 6 |  |  | 11 |  | 3. + IFNG longCTD: 1
CLTC |  |  |  |  | 8 | 

Substance | 4. longCTD + Dox + IFNG (experiment 4, Dox + IFNG) | 3. + Dox longCTD | 3. + IFNg + Dox longCTD | SUM of PSMS | 4. mL1dL2 + Dox + IFNG [1] | other results
P50991 | 1 |  | 1 | 5 |  | 4. mL1dL2 + Dox + IFNG [3]: 3
P11940 | 3 |  | 13 | 21 |  | 
P02751 |  | 17 | 48 | 68 |  | 
PABPC1 |  |  |  |  | 5 | 
P68371 | 100 | 42 | 70 | 283 |  | 3. + IFNG longCTD: 11
FLNA |  |  |  |  | 4 | 4. + IFNG mix [2]: 3
ENO1 |  |  |  |  | 3 | 4. + IFNG mix [2]: 6
PLEC |  |  |  |  | 16 | 4. + IFNG mix [2]: 3
Q9Y490 | 3 | 1 | 1 | 5 |  | 
TUBB4B |  |  |  |  | 47 | 4. + IFNG mix [2]: 13
FN1 |  |  |  |  |  | 4. + IFNG mix [2]: 3
FLNC |  |  |  |  | 2 | 4. + IFNG mix [2]: 1
P68363 |  | 22 |  | 55 |  | 
P38646 | 7 | 1 | 10 | 30 |  | 4. mL1dL2 + Dox + IFNG [3]: 11; 4. + IFNG mix [4]: 1
Q00839 |  | 4 | 9 | 14 |  | 
P16989 |  | 1 | 3 | 11 |  | 
YBX3 |  |  |  |  | 7 | 
P40763 |  | 1 | 3 | 5 |  | 
NES |  |  |  |  | 1 | 4. + IFNG mix [2]: 6
XRCC5 |  |  |  |  | 1 | 
PSME2 |  |  |  |  | 4 | 
COL1A2 |  |  |  |  |  | 4. + IFNG mix [2]: 2
STK38 |  |  |  |  |  | 4. + IFNG mix [2]: 4
